# Test results taken from patent US20230109839A1, “THERAPEUTIC AGENT FOR TAUOPATHIES” (SUMITOMO PHARMA CO., LTD., priority 2020, published 2023).
# Molecular target: T1, human Nav1.1 (Homo sapiens, UniProt P35498)
# T1 construct: host or cells: HEK293
# Test: Amplification of Nav1.1-derived voltage-gated sodium current (Nav1.1 current), automated patch clamp (Test 1)
# Assay type: cell-based
# Details: Concentration for evaluation 1 μM; HEK293 cell line stably expressing human Nav1.1
# Description: Test 1: Evaluation of the Amplification of Nav1.1-Derived Voltage-Gated Sodium Current (Nav1.1 Current) by Using a Cell Line Stably Expressing Human Nav1.1
# (1) Preparation of Test Compound Solution
# Test compounds were prepared by dissolving in DMSO at 200 times of the concentration at evaluation, and diluting the obtained solution to twice the concentration of evaluation with an extracellular fluid (135 mmol/L NaCl, 4 mmol/L KCl, 1 mmol/L MgCl2, 5 mmol/L CaCl2, 5 mmol/L Glucose, 10 mmol/L HEPES).
# (2) Induction and Measurement of Nav1.1 Current
# A HEK293 cell line stably expressing human Nav1.1 (cat #CYL3009, Eurofins DiscoverX Products, LLC, Human Embryonic Kidney 293) was purchased, and used in the present test. Nav1.1 current was induced by stimulating Ramp wave voltage. Detection of current which accompanied with the stimulation of voltage was carried out by a patch-clamp voltage-clamp method using HTS automated patch clamp system (SynchroPatch 768PE, Nanion Technologies GmbH, Germany). Only cells with more than 500 pA of voltage-gated sodium channel current were used for the evaluation of the activity of compounds on Nav1.1 current because there was the possibility that currents derived from endogenous voltage-gated sodium channels accounted for large proportion in cells with less than 500 pA of voltage-gated sodium channel current which was induced by stimulating Ramp wave voltage.
# (3) Pharmacological Effect on Nav1.1 Current
# The effect of test compounds on the amplification of Nav1.1-derived voltage-gated sodium current was evaluated by using a cell line stably expressing human Nav1.1 and HTS automated patch clamp system. In other words, test compounds were added in an extracellular fluid containing 1% DMSO, and evaluated as a change of the peak value of Nav1.1 current and the area under the curve (AUC).
# (4) Method for Pharmacological Evaluation
# The Nav1.1 current amplification rates of test compounds were calculated by the following formula:
# Nav1.1 current amplification rate (%)=100×[the peak value of Nav1.1 current or the area under the curve after the addition of test compounds]/[the peak value of Nav1.1 current or the area under the curve before the addition of test compounds]−100
row,Compound,Nav1.1 current amplification rate (%)
1,CC1CC=C(c2ccc(=O)n(CC(=O)N3CCc4c(CNCC(F)F)cccc43)n2)CC1 (centres unmarked) [Example 312],80
2,CN(c1cnc2cnn(CC(=O)Nc3ccc4cnnn4c3)c2n1)C1CC1 [Example 707],62
3,CN(c1ncc2cnn(CC(=O)Nc3ccn4ncnc4c3)c2n1)C1CC1 [Example 794],27
4,O=C(Cn1ncc2cnc(N3CCC4(CCC4)C3)nc21)Nc1ccn2ncnc2c1 [Example 765],25
5,CO[C@H]1CCN(Cc2cccc3c2CCN3C(=O)Cn2nc(C3=CCC(C)CC3)ccc2=O)C1 (some centres unmarked) [Example 272],127
6,CC1CC=C(c2ccc(=O)n(CC(=O)N3CCc4c(CN5CC=CC5)cccc43)n2)CC1 (centres unmarked) [Example 287],73
7,CN(c1cnc2cnn(CC(=O)Nc3ccc4ncnn4c3)c2n1)C1CC2(CC2)C1 [Example 666],64
8,CN(c1cnc2cnn(CC(=O)Nc3ccc4cnnn4c3)c2n1)C1CCCC1 [Example 679],63
9,CC1CC=C(c2cnc3cnn(CC(=O)Nc4ccc5ncnn5c4)c3n2)CC1 (centres unmarked) [Example 653],173
10,CC1(C)CCN(c2cnc3cnn(CC(=O)Nc4ccc5ncnn5c4)c3n2)CC1 [Example 654],23
11,CN(c1cnc2cnn(CC(=O)Nc3ccc(C#N)nc3)c2n1)C1CC1 [Example 709],44
12,CC1CC=C(c2ccc(=O)n(CC(=O)Nc3ccnc(N4CCOCC4)c3F)n2)CC1 (centres unmarked) [Example 383],84
13,Cc1cc(NC(=O)Cn2ncc3ncc(N(C)C4CCCC4)nc32)cc2ncnn12 [Example 672],56
14,O=C(Cn1ncc2ncc(N3CCC4(CC4)C(F)(F)C3)nc21)Nc1ccc2ncnn2c1 [Example 659],25
15,CCC1(C)CCN(c2ncc3cnn(CC(=O)Nc4ccn5ncnc5c4)c3n2)CC1 [Example 789],36

# Same assay, conditions: Concentration for evaluation 3 μM; HEK293 cell line stably expressing human Nav1.1
row,Compound,Nav1.1 current amplification rate (%)
1,CC1(C)CC=C(c2ccc(=O)n(CC(=O)N3CCc4c(C5CN(C(=O)CO)C5)cccc43)n2)CC1 [Example 437],582
2,CC1CC=C(c2ccc(=O)n(CC(=O)N3CCc4c(-c5cn[nH]c5)cccc43)n2)CC1 (centres unmarked) [Example 254],309
3,COc1cc(N2CCN(C(=O)Cn3nc(C4=CCC(C)CC4)ccc3=O)CC2)ccc1F (centres unmarked) [Example 413],27
4,CC1CC=C(c2ccc(=O)n(CC(=O)N3CCc4c(-c5ccn(C)n5)cccc43)n2)CC1 (centres unmarked) [Example 252],254
5,CC1CC=C(c2ccc(=O)n(CC(=O)Nc3ccn4c(C5CC5)cnc4c3)n2)CC1 (centres unmarked) [Example 335],187
6,O=C(Cn1nc(C2=CCC3(CC2)CC3(F)F)ccc1=O)N1CCc2c(N3CCOCC3)cccc21 (centres unmarked) [Example 478],345

# Same assay, conditions: Concentration for evaluation 10 μM; HEK293 cell line stably expressing human Nav1.1
row,Compound,Nav1.1 current amplification rate (%)
1,CC1CCC(c2ccc(=O)n(CC(=O)N3CCc4c(N5CCOCC5)cccc43)n2)CC1 (mixture of isomers) [Example 472],387
2,CN(c1cnc2cnn(CC(=O)N3CCc4c3cccc4C(F)(F)F)c2n1)C1CC1 [Example 731],102
3,Cc1noc2ccc(NC(=O)Cn3nc(N4CCC(C)CC4)ccc3=O)cc12 [Example 70],68
4,N#Cc1ccc(NC(=O)Cn2nc(N3CCCC(C(F)(F)F)C3)ccc2=O)cc1 (centres unmarked) [Example 16],59
5,N#Cc1ccc(NC(=O)Cn2nc(N3CCCCCCC3)ccc2=O)cc1 [Example 12],241
6,CC1CC=C(c2ccc(=O)n(CC(=O)N3CCc4c(C5CN(C(C)C)C5)cccc43)n2)CC1 (centres unmarked) [Example 304],167
7,CC1CC=C(c2ccc(=O)n(CC(=O)N3CCN(c4cnn(C)c4)CC3)n2)CC1 (centres unmarked) [Example 415],93
8,O=C(Cn1nc(C2=CCCCC2)ccc1=O)Nc1ccn2ccnc2c1 [Example 458],24
9,CC1CCN(c2ccc(=O)n(CC(=O)Nc3ccnc(N(C)C)c3)n2)CC1 [Example 57],48
10,CC1CC=C(c2ccc(=O)n(CC(=O)N3CCN(Cc4cccnc4)CC3)n2)CC1 (centres unmarked) [Example 393],19
11,COc1cc(-c2cc(Cl)cs2)nn(CC(=O)Nc2ccn3ccnc3c2)c1=O [Example 466],233
12,CC1CCN(c2ccc(=O)n(CC(=O)Nc3ccc4sc(N(C)C)nc4c3)n2)CC1 [Example 92],88
13,N#Cc1ccc(NC(=O)Cn2nc(N3CCCC4(CCC4)C3)ccc2=O)cc1 [Example 33],220
14,CC1CC=C(c2ccc(=O)n(CC(=O)N3CC=C(c4ccccn4)CC3)n2)CC1 (centres unmarked) [Example 420],39
15,CC1CCN(c2ccc(=O)n(CC(=O)Nc3ccc4scnc4c3)n2)CC1 [Example 87],255
16,Cc1nc2cc(NC(=O)Cn3nc(N4CCC(C)CC4)ccc3=O)ccc2o1 [Example 69],137
17,CC1(C)CC=C(c2ccc(=O)n(CC(=O)Nc3ccc(C#N)cc3)n2)CC1 [Example 42],216
18,N#Cc1ccc(NC(=O)Cn2nc(N3CCC4(CC3)COC4)ccc2=O)cc1 [Example 27],5

# Same assay, conditions: Concentration for evaluation 50 μM; HEK293 cell line stably expressing human Nav1.1
row,Compound,Nav1.1 current amplification rate (%)
1,CC1CC=C(c2ccc(=O)n(CC(=O)Nc3ccc4nncn4c3)n2)CC1 (centres unmarked) [Example 341],202
2,CC1CC=C(c2ccc(=O)n(CC(=O)N3CCN(C4CCOCC4)CC3)n2)CC1 (centres unmarked) [Example 411],18

# Same assay, conditions: HEK293, Concentration for evaluation 1 μM; HEK293 cell line stably expressing human Nav1.1; read-out: Nav1.1 current amplification rate (%)
row,Compound,activation at 1 µM [%]
1,N#Cc1cnc(NC(=O)Cn2ncc3ncc(N4CCC5(CC5)C(F)(F)C4)nc32)cn1 [Example 754],14
2,CC1CC=C(c2cnc3cnn(CC(=O)Nc4ccc5ocnc5c4)c3n2)CC1 (centres unmarked) [Example 735],321
3,Cc1ccc(-c2cnc3cnn(CC(=O)N4CCN(c5cccnc5)CC4)c3n2)c(F)c1 [Example 742],32
4,CC1(C)CC=C(c2cnc3cnn(CC(=O)Nc4ccn5ccnc5c4)c3n2)CC1 [Example 737],249

# Same assay, conditions: HEK293, Concentration for evaluation 3 μM; HEK293 cell line stably expressing human Nav1.1; read-out: Nav1.1 current amplification rate (%)
row,Compound,activation at 3 µM [%]
1,Cc1nn(CC(=O)Nc2ccn3ncnc3c2)c2nc(N3CCC4(CCC4)C3)cnc12 [Example 738],22
2,Cc1nn(CC(=O)Nc2ccc3ncnn3c2)c2nc(N3CCC4(CCC4)C3)cnc12 [Example 739],10

# Same assay, conditions: HEK293, Concentration for evaluation 10 μM; HEK293 cell line stably expressing human Nav1.1; read-out: Nav1.1 current amplification rate (%)
row,Compound,activation at 10 µM [%]
1,CN(c1cnc2cnn(CC(=O)N3Cc4ccc(Br)cc4C3)c2n1)C1CC2(CC2)C1 [Example 751],121

# Same assay, conditions: HEK293, concentration for evaluation 0.3 μM; HEK293 stably expressing human Nav1.1; read-out: Nav1.1 current amplification rate (%)
row,Compound,activation at 0.3 µM [%]
1,CN(c1ncc2cnn(CC(=O)N3CCc4c(-c5ccnnc5)cccc43)c2n1)C1CC1 [Example 838],122

# Same assay, conditions: HEK293, concentration for evaluation 1 μM; HEK293 stably expressing human Nav1.1; read-out: Nav1.1 current amplification rate (%)
row,Compound,activation at 1 µM [%]
1,CC1CCN(c2ncc3cnn(CC(=O)Nc4cnc(C#N)cn4)c3n2)CC1(F)F (centres unmarked) [Example 847],132
2,CN(c1ncc2cnn(CC(=O)Nc3cnc4cccnc4c3)c2n1)C1CC1 [Example 841],28

# Same assay, conditions: concentration for evaluation 1 μM; HEK293 stably expressing human Nav1.1
row,Compound,Nav1.1 current amplification rate (%)
1,O=C(Cn1ncc2cnc(N3CCC4(CC4)C(F)(F)C3)nc21)Nc1ccc(-n2ccnc2)nc1 [Example 824],240
2,O=C(Cn1ncc2ccc(N3CCC4(CCC4)CC3)nc21)Nc1ccn2ncnc2c1 [Example 854],45
3,CN(c1ncc2cnn(CC(=O)Nc3ccc4ncnn4c3)c2n1)C1CCC1 [Example 817],21
4,CC1CC=C(c2ccc3cnn(CC(=O)Nc4ccn5ncnc5c4)c3n2)CC1 (centres unmarked) [Example 852],111
5,O=C(Cn1ncc2cnc(N3CCC4(CCC4)C3)nc21)Nc1ccc2cncnc2c1 [Example 807],86
6,CN(c1ncc2cnn(CC(=O)Nc3ccc4ncnn4c3)c2n1)C1CC2(CC2)C1 [Example 820],50

# Same assay, conditions: concentration for evaluation 50 μM; HEK293 stably expressing human Nav1.1
row,Compound,Nav1.1 current amplification rate (%)
1,CC1(C)CN(c2ccc3cnn(CC(=O)Nc4ccn5ncnc5c4)c3n2)C1 [Example 859],39
2,CC1CCN(c2ccc3cnn(CC(=O)Nc4ccc5nccn5n4)c3n2)CC1 [Example 880],42
